From patent US11413321B2, “Pharmaceutical composition for use in increasing hair, modifying scalp or skin, healing a wound, promoting osteogenesis, or modifying hair” (priority 2017, dated 2022) come the findings set out here.

Each structure is given as a SMILES string.

What all share (type): in vivo, Wistar rat
In one assay the test system is PPAR-γ-positive cells. Put plainly: Immunohistological staining of rat dorsal skin after injection of fatty acids (PPAR-γ). The note with it: 1 mg fatty acid in 20 μL per location. The method, then:
Next, representative fatty acids contained in milk were administered to a 12-week-old Wistar rat at a plurality of locations on the dorsal skin as in Example 1(2) above, and a change in tissues by the administration was observed after the tissues were subjected to immunohistological staining. More specifically, physiological saline was administered in an amount of 20 μL per location, an administration liquid containing 1 mg of a fatty acid was administered in an amount of 20 μL per location, and a change in CD68-positive macrophage stained images and PPAR-γ-positive cell images by the administration was observed. Samples of the Wistar rat were obtained by sampling administration sites (four weeks after administration and eight weeks after administration). FIGS. 10A to 10G show the results. […] At saturated fatty acid injection sites, infiltration of a large number of CD68-positive cells was observed, and fibrillization of normal tissues was observed. Therefore, in FIGS. 10B to 10D, a change in fat tissues was examined at a location which was closest to the administration site and where normal tissues were maintained (non-fibrillization location).

Another assay deals with Itga4. Put plainly: Quantitative PCR of dorsal tissues after subcutaneous administration (Itga4). The settings on record: 20 μL per location into rat dorsal part; vs control without administration; FIG. 15. The method, then: (§1) 4.) Integrin subunit alpha 4 (Itga4), Rattus norvegicus: mRNA 3,736 bp NM 001107737.1 GI: 157819948 Next, a change in gene expression in tissues was examined. Three regions were set between the head and the tail of the dorsal part of a 12-week-old Wistar rat (male), and each region was divided between the left and the right of the backbone into two regions to set a total of six regions on the dorsal part. Milk or palmitic acid was injected in an amount of 20 μL per location at two locations in the vicinity of the center of each region. The distance between the two locations was 1 cm. The collected tissue fragments were frozen with liquid nitrogen, and stored at −80° C. […] Analysis of gene expression by quantitative PCR was performed in the following manner: Integrated DNA technologies, Inc (Skokie, Ill., USA) was requested to design and synthesize gene-specific primers and probes, and using PrimeTime Gene Expression Master Mix Reagent (Integrated DNA Technologies, Inc, Skokie, Ill., USA) and Rotor-Gene Q PCR Apparatus (QIAGEN GmbH, Hilden, Germany), PCR analysis was performed twice per gene per specimen to analyze the expression level of a target gene. […]

For a further assay, the system named is CD34. Put plainly: Quantitative PCR of dorsal tissues after subcutaneous administration (CD34). The settings on record: 20 μL per location into rat dorsal part; vs control without administration; FIG. 15. On the procedure:
as §1, with “5.) CD34,” for “4.) Integrin subunit alpha 4 (Itga4),”, “norvegicus: CD34 molecule (Cd34),” for “norvegicus:”, “1,161” for “3,736”, “001107202.2” for “001107737.1”, “169790781” for “157819948”

Turning to `CCCCCCCCCCCCCCCC(=O)O` [palmitic acid], the “increase in the number of PPAR-γ-positive cells at the administration site” value with PPAR-γ-positive cells (eight weeks after administration) is reported as “maintained”. Besides, in the assay on PPAR-γ-positive cells (four weeks after administration, vs physiological saline, FIGS. 10B-10G), the “number of PPAR-γ-positive cells at the administration site” value was “increased”. Also, in the assay on Itga4, the “expression level of Itga4 in tissues” value was “greatly increased”. The “CD34 gene expression in tissues” value with CD34 is given as “increase”.
